Laboratory results as given in ChEMBL document CHEMBL1201862, “PubChem BioAssay data set” (2004).
Where “and” joins values, the source holds several entries; their conditions need not be identical. Equal values may be shown once.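 Dose response: 5 concentrations. Exposure: 48 h. Format: 96-well plates. Endpoint: linear interpolation; highest concentration if not reached. GI50 marks 50% less growth.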 Calls of active or inactive are those of the source. No stated cut-off is given here; in the data, active = GI50 up to about 1.1 µM and inactive = higher.

What was measured:
Experiment in all cases: DTP human tumour cell line panel, 48 h
XF498 = test system: XF498
DU-145 = test system: DU-145
RPMI-8226 = test system: RPMI-8226
DMS-114 = test system: DMS-114
HOP-18 = test system: HOP-18
T47D = test system: T47D
DMS-273 = test system: DMS-273
MDA-MB-435 = test system: MDA-MB-435
UACC-257 = test system: UACC-257
MDA-MB-231 = test system: MDA-MB-231
NCI-H522 = test system: NCI-H522
CAKI-1 = test system: CAKI-1
RXF 393 = test system: RXF 393
MDA-N = test system: MDA-N
PC-3 = test system: PC-3
BT-549 = test system: BT-549
HOP-92 = test system: HOP-92
LXFL 529 = test system: LXFL 529
KM-20L2 = test system: KM-20L2
M19-MEL = test system: M19-MEL
NCI/ADR-RES = test system: NCI/ADR-RES
MCF7 = test system: MCF7
DLD-1 = test system: DLD-1
SNB-78 = test system: SNB-78
Hs-578T = test system: Hs-578T
A549 = test system: A549
HOP-62 = test system: HOP-62
OVCAR-3 = test system: OVCAR-3
UACC-62 = test system: UACC-62
U-251 = test system: U-251
CCRF-CEM = test system: CCRF-CEM
ACHN = test system: ACHN
IGROV-1 = test system: IGROV-1
UO-31 = test system: UO-31
NCI-H226 = test system: NCI-H226
SW-620 = test system: SW-620
SNB-19 = test system: SNB-19
SNB-75 = test system: SNB-75
M14 = test system: M14
SF-268 = test system: SF-268
EKVX = test system: EKVX
HCT-15 = test system: HCT-15
MOLT-4 = test system: MOLT-4
Malme-3M = test system: Malme-3M
SF-295 = test system: SF-295
786-0 = test system: 786-0
SN12C = test system: SN12C
SK-MEL-28 = test system: SK-MEL-28
OVCAR-4 = test system: OVCAR-4
SF-539 = test system: SF-539
SK-MEL-2 = test system: SK-MEL-2
A498 = test system: A498
COLO 205 = test system: COLO 205
NCI-H23 = test system: NCI-H23
HCT-116 = test system: HCT-116
OVCAR-8 = test system: OVCAR-8
K562 = test system: K562
SK-MEL-5 = test system: SK-MEL-5
HL-60 = test system: HL-60
KM12 = test system: KM12
SK-OV-3 = test system: SK-OV-3
NCI-H460 = test system: NCI-H460
SR = test system: SR
HT-29 = test system: HT-29
TK-10 = test system: TK-10
OVCAR-5 = test system: OVCAR-5
LOX IMVI = test system: LOX IMVI

With `CN(C)CCNC(=O)c1cccc2cc([N+](=O)[O-])ccc12` the GI50 (XF498) was 0.252 µM (active), the GI50 (DU-145) was 2.86 µM (inactive) and the GI50 (RPMI-8226) was 183 nM (active) and 262 nM (active). For the same compound, the GI50 (DMS-114) was 0.217 µM (active), the GI50 (HOP-18) was 0.697 µM (active) and the GI50 (T47D) was 2.79 µM (inactive). The GI50 (DMS-273) was 0.123 µM (active), the GI50 (MDA-MB-435) was 2.23 µM (inactive) and the GI50 (UACC-257) was 0.243 µM (active). For the same compound, the GI50 (MDA-MB-231) was 1.34 µM (inactive), the GI50 (NCI-H522) was 0.685 µM (active) and the GI50 (CAKI-1) was 0.519 µM (active). For the same compound, the GI50 (RXF 393) was 0.0649 µM (active), the GI50 (MDA-N) was 1.98 µM (inactive) and the GI50 (PC-3) was 0.76 µM (active). The GI50 (BT-549) was 3.56 µM (inactive), the GI50 (HOP-92) was 0.249 µM (active) and the GI50 (LXFL 529) was 0.271 µM (active). For the same compound, the GI50 (KM-20L2) was 0.111 µM (active), the GI50 (M19-MEL) was 0.279 µM (active) and the GI50 (NCI/ADR-RES) was 1.39 µM (inactive). For the same compound, the GI50 (MCF7) was 0.608 µM (active), the GI50 (DLD-1) was 0.217 µM (active) and the GI50 (SNB-78) was 0.22 µM (active). The GI50 (Hs-578T) was 1.46 µM (inactive).
For `N#CC(N)(C(=O)CCC(=O)Nc1cccc(Cl)c1)c1ccc(Cl)cc1` (stereo not given), the GI50 (XF498) was > 100 µM (inactive), the GI50 (A549) was > 100 µM (inactive) and the GI50 (HOP-62) was > 100 µM (inactive). For the same compound, the GI50 (OVCAR-3) was > 100 µM (inactive), the GI50 (UACC-62) was > 100 µM (inactive) and the GI50 (U-251) was > 100 µM (inactive). The GI50 (CCRF-CEM) was > 100 µM (inactive), the GI50 (RPMI-8226) was > 100 µM (inactive) and the GI50 (DMS-114) was > 100 µM (inactive). For the same compound, the GI50 (HOP-18) was > 100 µM (inactive), the GI50 (DMS-273) was > 100 µM (inactive) and the GI50 (ACHN) was > 100 µM (inactive). The GI50 (UACC-257) was > 100 µM (inactive), the GI50 (IGROV-1) was > 100 µM (inactive) and the GI50 (NCI-H522) was > 100 µM (inactive). For the same compound, the GI50 (UO-31) was > 100 µM (inactive), the GI50 (NCI-H226) was > 100 µM (inactive) and the GI50 (SW-620) was > 100 µM (inactive). For the same compound, the GI50 (SNB-19) was > 100 µM (inactive), the GI50 (CAKI-1) was > 100 µM (inactive) and the GI50 (SNB-75) was > 100 µM (inactive). For the same compound, the GI50 (M14) was > 100 µM (inactive), the GI50 (SF-268) was > 100 µM (inactive) and the GI50 (EKVX) was > 100 µM (inactive). The GI50 (HCT-15) was over 100 µM, the GI50 (MOLT-4) was > 100 µM (inactive) and the GI50 (Malme-3M) was > 100 µM (inactive). For the same compound, the GI50 (SF-295) was > 100 µM (inactive), the GI50 (786-0) was > 100 µM (inactive) and the GI50 (SN12C) was > 100 µM (inactive). For the same compound, the GI50 (SK-MEL-28) was > 100 µM (inactive), the GI50 (OVCAR-4) was > 100 µM (inactive) and the GI50 (SF-539) was > 100 µM (inactive). For the same compound, the GI50 (HOP-92) was > 100 µM (inactive), the GI50 (LXFL 529) was > 100 µM (inactive) and the GI50 (SK-MEL-2) was > 100 µM (inactive). For the same compound, the GI50 (A498) was > 100 µM (inactive), the GI50 (COLO 205) was > 100 µM (inactive) and the GI50 (KM-20L2) was > 100 µM (inactive). The GI50 (NCI-H23) was > 100 µM (inactive), the GI50 (M19-MEL) was > 100 µM (inactive) and the GI50 (HCT-116) was > 100 µM (inactive). For the same compound, the GI50 (OVCAR-8) was > 100 µM (inactive), the GI50 (K562) was > 100 µM (inactive) and the GI50 (SK-MEL-5) was > 100 µM (inactive). For the same compound, the GI50 (HL-60) was > 100 µM (inactive), the GI50 (KM12) was > 100 µM (inactive) and the GI50 (DLD-1) was > 100 µM (inactive). For the same compound, the GI50 (SNB-78) was > 100 µM (inactive), the GI50 (SK-OV-3) was > 100 µM (inactive) and the GI50 (NCI-H460) was > 100 µM (inactive). For the same compound, the GI50 (SR) was > 100 µM (inactive), the GI50 (HT-29) was > 100 µM (inactive) and the GI50 (TK-10) was > 100 µM (inactive).
`O=c1c2cccc3cccc(c4n1CCN=4)c32` was tested, and the GI50 (XF498) was > 100 µM (inactive), the GI50 (A549) was > 100 µM (inactive) and the GI50 (HOP-62) was 93.3 µM (inactive). The GI50 (OVCAR-3) was > 100 µM (inactive), the GI50 (UACC-62) was 84.5 µM (inactive) and the GI50 (U-251) was > 100 µM (inactive). For the same compound, the GI50 (CCRF-CEM) was 80.2 µM (inactive), the GI50 (RPMI-8226) was > 100 µM (inactive) and the GI50 (OVCAR-5) was > 100 µM (inactive). For the same compound, the GI50 (DMS-114) was > 100 µM (inactive), the GI50 (HOP-18) was > 100 µM (inactive) and the GI50 (DMS-273) was 97.7 µM (inactive). For the same compound, the GI50 (ACHN) was 56 µM (inactive), the GI50 (UACC-257) was > 100 µM (inactive) and the GI50 (IGROV-1) was 82.6 µM (inactive). The GI50 (NCI-H522) was 84.3 µM (inactive), the GI50 (UO-31) was 41 µM (inactive) and the GI50 (NCI-H226) was 56.8 µM (inactive). The GI50 (SW-620) was > 100 µM (inactive), the GI50 (CAKI-1) was 63.4 µM (inactive) and the GI50 (SNB-75) was 76.9 µM (inactive). The GI50 (RXF 393) was 42.4 µM (inactive), the GI50 (M14) was 73.1 µM (inactive) and the GI50 (SF-268) was > 100 µM (inactive). For the same compound, the GI50 (EKVX) was > 100 µM (inactive), the GI50 (HCT-15) was 85.7 µM and the GI50 (MOLT-4) was 30.3 µM (inactive). For the same compound, the GI50 (Malme-3M) was > 100 µM (inactive), the GI50 (SF-295) was > 100 µM (inactive) and the GI50 (LOX IMVI) was 32 µM (inactive). For the same compound, the GI50 (786-0) was > 100 µM (inactive), the GI50 (SN12C) was > 100 µM (inactive) and the GI50 (SK-MEL-28) was > 100 µM (inactive). The GI50 (OVCAR-4) was 40.8 µM (inactive), the GI50 (SF-539) was > 100 µM (inactive) and the GI50 (HOP-92) was > 100 µM (inactive). The GI50 (LXFL 529) was > 100 µM (inactive), the GI50 (SK-MEL-2) was 63.7 µM (inactive) and the GI50 (A498) was 40.3 µM (inactive). The GI50 (COLO 205) was > 100 µM (inactive), the GI50 (KM-20L2) was > 100 µM (inactive) and the GI50 (NCI-H23) was > 100 µM (inactive). For the same compound, the GI50 (M19-MEL) was > 100 µM (inactive), the GI50 (HCT-116) was 57.8 µM (inactive) and the GI50 (OVCAR-8) was > 100 µM (inactive). The GI50 (K562) was > 100 µM (inactive), the GI50 (SK-MEL-5) was > 100 µM (inactive) and the GI50 (HL-60) was 56.8 µM (inactive). For the same compound, the GI50 (KM12) was 76.9 µM (inactive), the GI50 (DLD-1) was 52.5 µM (inactive) and the GI50 (SNB-78) was > 100 µM (inactive). For the same compound, the GI50 (SK-OV-3) was 41 µM (inactive), the GI50 (NCI-H460) was 61.1 µM (inactive) and the GI50 (SR) was 25.2 µM (inactive). For the same compound, the GI50 (HT-29) was > 100 µM (inactive) and the GI50 (TK-10) was 17.5 µM (inactive).
